Data taken from ChEMBL document CHEMBL1201862, “PubChem BioAssay data set” (2004).
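Following 48 hours of exposure in 96-well plates, responses at five concentrations were used to interpolate endpoints linearly. At the GI50, growth is halved.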 The source made the active and inactive calls. Rule as the data show it: active = GI50 up to about 1.1 µM and inactive = higher.

Key:
Assay in all cases: NCI-60 cell line screen, 48 h
[1] = test system: A498
[2] = test system: BT-549
[3] = test system: K562
[4] = test system: TK-10
[5] = test system: MDA-MB-231
[6] = test system: UO-31
[7] = test system: HT-29
[8] = test system: MDA-N
[9] = test system: SNB-75
[10] = test system: NCI-H522
[11] = test system: RXF 393
[12] = test system: NCI-H460
[13] = test system: KM12
[14] = test system: RPMI-8226
[15] = test system: HCT-116
[16] = test system: LOX IMVI
[17] = test system: A549
[18] = test system: MOLT-4
[19] = test system: SF-539
[20] = test system: NCI-H23

SMILES	GI50 [1]	GI50 [2]	GI50 [3]	GI50 [4]	GI50 [5]	GI50 [6]	GI50 [7]	GI50 [8]	GI50 [9]	GI50 [10]	GI50 [11]	GI50 [12]	GI50 [13]	GI50 [14]	GI50 [15]	GI50 [16]	GI50 [17]	GI50 [18]	GI50 [19]	GI50 [20]
O=C1c2cc(Cl)ccc2N=C(NC2CCCC2)C2CSCN12 (stereo not given)	68.9 µM (inactive)	> 100 µM (inactive)	59.2 µM (inactive)	> 100 µM (inactive)	> 100 µM (inactive)	46.3 µM (inactive)	28.9 µM (inactive)	> 100 µM (inactive)	52.7 µM (inactive)	63.8 µM (inactive)	92.9 µM (inactive)	47.4 µM (inactive)	35.7 µM (inactive)	87.5 µM (inactive)	> 100 µM (inactive)	> 100 µM (inactive)	> 100 µM (inactive)	33.5 µM (inactive)	–	–
O=C(Nc1ccccc1)N1CCNC1=S	> 100 µM (inactive)	65.5 µM (inactive)	> 100 µM (inactive)	–	> 100 µM (inactive)	57.3 µM (inactive)	> 100 µM (inactive)	> 100 µM (inactive)	28.4 µM (inactive)	> 100 µM (inactive)	26.5 µM (inactive)	57.9 µM (inactive)	> 100 µM (inactive)	> 100 µM (inactive)	> 100 µM (inactive)	> 100 µM (inactive)	> 100 µM (inactive)	> 100 µM (inactive)	> 100 µM (inactive)	> 100 µM (inactive)
O=C(c1ccc(Cl)c(Cl)c1)N(C(=S)OC12CC3CC(CC(C3)C1)C2)c1ccccc1	37.1 µM (inactive)	36 µM (inactive)	17.1 µM (inactive)	66.8 µM (inactive)	38.3 µM (inactive)	21.1 µM (inactive)	29.6 µM (inactive)	32.7 µM (inactive)	93.1 µM (inactive)	13.2 µM (inactive)	> 100 µM (inactive)	37.8 µM (inactive)	33.7 µM (inactive)	–	24.8 µM (inactive)	–	32.2 µM (inactive)	–	36.6 µM (inactive)	28.9 µM (inactive)
COc1cccc(C23CCCC(C2)NCC3Br)c1OC (stereo not given)	15.4 µM (inactive)	15.6 µM (inactive)	21.5 µM (inactive)	36.9 µM (inactive)	> 100 µM (inactive)	47.4 µM (inactive)	37.3 µM (inactive)	48.4 µM (inactive)	28.1 µM (inactive)	10.2 µM (inactive)	92.3 µM (inactive)	17.9 µM (inactive)	35.1 µM (inactive)	19.2 µM (inactive)	30.8 µM (inactive)	37.5 µM (inactive)	3.66 µM (inactive)	45 µM (inactive)	–	15.3 µM (inactive)
Nc1nc(N)c2cc(CNc3ccc(C(=O)NC(CC(=O)O)C(=O)O)c(Cl)c3)ccc2n1 (stereo not given)	0.171 µM (active)	25.8 µM (inactive)	< 0.0192 µM (active)	0.0803 µM (active)	337 µM (inactive)	0.918 µM (active)	< 0.0143 µM (active)	< 0.01 µM (active)	> 20.8 µM (inactive)	0.502 µM (active)	61 µM (inactive)	0.0256 µM (active)	0.0796 µM (active)	–	< 0.01 µM (active)	< 0.01 µM (active)	0.0346 µM (active)	0.0175 µM (active)	0.313 µM (active)	0.117 µM (active)
CCN(CCO)CC1CCCC2CCCCC21 (stereo not given)	> 100 µM (inactive)	> 100 µM (inactive)	46.5 µM (inactive)	> 100 µM (inactive)	> 100 µM (inactive)	> 100 µM (inactive)	> 100 µM (inactive)	> 100 µM (inactive)	> 100 µM (inactive)	> 100 µM (inactive)	> 100 µM (inactive)	> 100 µM (inactive)	> 100 µM (inactive)	> 100 µM (inactive)	> 100 µM (inactive)	–	> 100 µM (inactive)	–	> 100 µM (inactive)	> 100 µM (inactive)
COc1ccc(C2CC(c3ccc(NS(=O)(=O)c4cc([N+](=O)[O-])ccc4C)cc3)=NN2S(=O)(=O)c2cc([N+](=O)[O-])ccc2C)cc1 (stereo not given)	49.3 µM (inactive)	36 µM (inactive)	36.1 µM (inactive)	52.6 µM (inactive)	43.6 µM (inactive)	32.1 µM (inactive)	50.4 µM (inactive)	35.8 µM (inactive)	> 100 µM (inactive)	22.3 µM (inactive)	> 100 µM (inactive)	32.4 µM (inactive)	46 µM (inactive)	23.6 µM (inactive)	32.7 µM (inactive)	68.1 µM (inactive)	34.5 µM (inactive)	33.3 µM (inactive)	–	22.4 µM (inactive)
COCC12CCC(OC)C34C5CC6(O)C(OC)C=C(C5C6OC(=O)c5ccccc5)C(C(OC)C13)C4N(C)C2 (stereo not given)	> 100 µM (inactive)	> 100 µM (inactive)	–	> 100 µM (inactive)	> 100 µM (inactive)	> 100 µM (inactive)	> 100 µM (inactive)	> 100 µM (inactive)	32.1 µM (inactive)	> 100 µM (inactive)	> 100 µM (inactive)	> 100 µM (inactive)	> 100 µM (inactive)	> 100 µM (inactive)	> 100 µM (inactive)	> 100 µM (inactive)	> 100 µM (inactive)	–	> 100 µM (inactive)	> 100 µM (inactive)
C=C1C(O)C2(O)OCC34C(CC5C(C)=CC(=O)C(O)C5(C)C23)OC(=O)C(OC(=O)C/C=C(\C)CCCCC)C14 (stereo not given)	0.0148 µM (active)	< 0.001 µM (active)	0.0125 µM (active)	0.00177 µM (active)	0.00315 µM (active)	0.0787 µM (active)	0.0141 µM (active)	< 0.001 µM (active)	0.0153 µM (active)	0.0125 µM (active)	0.0152 µM (active)	0.0125 µM (active)	0.0129 µM (active)	0.014 µM (active)	0.0125 µM (active)	–	0.017 µM (active)	0.0125 µM (active)	0.0153 µM (active)	0.0147 µM (active)
NC(=O)C(=CNC(=S)c1ccncc1)C(N)=O	–	> 100 µM (inactive)	> 100 µM (inactive)	> 100 µM (inactive)	> 100 µM (inactive)	> 100 µM (inactive)	> 100 µM (inactive)	> 100 µM (inactive)	–	> 100 µM (inactive)	> 100 µM (inactive)	> 100 µM (inactive)	> 100 µM (inactive)	> 100 µM (inactive)	> 100 µM (inactive)	> 100 µM (inactive)	> 100 µM (inactive)	> 100 µM (inactive)	> 100 µM (inactive)	> 100 µM (inactive)
Cc1ccnc(NS(=O)(=O)c2ccc(NC(=O)c3ccc4nc5ccccc5c(Nc5ccc(S(=O)(=O)Nc6nccc(C)n6)cc5)c4c3)cc2)n1	–	14.3 µM (inactive)	41.4 µM (inactive)	> 100 µM (inactive)	40.7 µM (inactive)	> 100 µM (inactive)	> 100 µM (inactive)	62.4 µM (inactive)	50.4 µM (inactive)	39.4 µM (inactive)	13.6 µM (inactive)	65.3 µM (inactive)	29 µM (inactive)	57.8 µM (inactive)	59 µM (inactive)	45.3 µM (inactive)	> 100 µM (inactive)	39.9 µM (inactive)	52 µM (inactive)	> 100 µM (inactive)
COC(=O)c1nc2n(n1)-c1ccccc1C(=O)N(Cc1ccccc1)C2	> 100 µM (inactive)	> 100 µM (inactive)	> 100 µM (inactive)	> 100 µM (inactive)	> 100 µM (inactive)	> 100 µM (inactive)	> 100 µM (inactive)	> 100 µM (inactive)	–	> 100 µM (inactive)	> 100 µM (inactive)	> 100 µM (inactive)	> 100 µM (inactive)	> 100 µM (inactive)	> 100 µM (inactive)	> 100 µM (inactive)	> 100 µM (inactive)	> 100 µM (inactive)	> 100 µM (inactive)	> 100 µM (inactive)
N#Cc1c(O)nc2[nH]nc(/N=N\c3c(O)ccc4ccccc34)c2c1-c1ccc(Cl)cc1	0.117 µM (active)	0.0826 µM (active)	1.63 µM (inactive)	0.108 µM (active)	0.23 µM (active)	0.175 µM (active)	0.123 µM (active)	0.637 µM (active)	–	0.248 µM (active)	0.198 µM (active)	0.0792 µM (active)	0.403 µM (active)	1.56 µM (inactive)	0.114 µM (active)	0.057 µM (active)	0.312 µM (active)	0.171 µM (active)	0.29 µM (active)	0.47 µM (active)
COc1cc(C2=C(C)[C@@H]3CN(CC=C3c3ccc(Cl)cc3)C2)c(S(=O)(=O)O)cc1OC	–	> 100 µM (inactive)	> 100 µM (inactive)	> 100 µM (inactive)	> 100 µM (inactive)	> 100 µM (inactive)	> 100 µM (inactive)	> 100 µM (inactive)	> 100 µM (inactive)	> 100 µM (inactive)	> 100 µM (inactive)	–	> 100 µM (inactive)	> 100 µM (inactive)	> 100 µM (inactive)	> 100 µM (inactive)	> 100 µM (inactive)	> 100 µM (inactive)	–	> 100 µM (inactive)
CCCCCCCCCCCCCC[C@@H](O)[C@H]1CC[C@H]([C@H]2CC[C@H]([C@H](O)CCCCCC[C@@H](O)CC3=C[C@H](C)OC3=O)O2)O1	> 12.5 µM (inactive)	> 25 µM (inactive)	–	> 25 µM (inactive)	> 25 µM (inactive)	> 25 µM (inactive)	1.7 µM (inactive)	2.03 µM (inactive)	> 25 µM (inactive)	8.93 µM (inactive)	> 25 µM (inactive)	0.0552 µM (active)	> 25 µM (inactive)	–	0.203 µM (active)	1.22 µM (inactive)	> 25 µM (inactive)	–	> 13.8 µM (inactive)	1.2 µM (inactive)
